Measured values from patent US20250034159A1, “INHIBITORS OF EPIDERMAL GROWTH FACTOR RECEPTOR” (ORIC Pharmaceuticals, Inc., priority 2021, published 2025).
Where two headings read alike, the source gives them in different places.

Legend:
BaF3_EGFR LR/CS cells = test: Biological Activity Assay D: BaF3 cell proliferation assay, EGFR L858R/C797S mutant (BaF3 LR/CS); assay type: cell-based; settings: Ba/F3 EGFR, read-out: BaF3 LR/CS IC50
Description: (§1) One frozen vial of cells should be thawed into one T25 flask in 10 mL media. Keep the flask upright in the incubator.
(§2) Method: One frozen vial of cells was thawed into one T25 flask in 10 mL media and the flask was kept upright in the incubator. Cells were split 1:10 every two to three days when cells reached confluency of around 1×10^6 cells/mL. Bravo protocol files were used with Greiner 384-well plates for all steps of compound preparation, cell plating and compound addition. […] 16 μL of DMSO were added (for compounds starting at 20 μM) or 28 μL DMSO (for compounds starting at 5 μM) to 96-well V-bottom polypropylene plate: wells 1A-1H (8 compounds/plate). […] 20 μL DMSO were added to the remainder of the wells (columns 2-12) in the 96-well V-bottom plate. A Bravo liquid handler was used to make 1:3 serial dilutions from columns 1 to 11 (12 remains as DMSO only) to prepare the DMSO dilution plate. 144 μL media were added to each well of a new 96-well V-bottom polypropylene plate to prepare the intermediate dilution plate. A Bravo or 96-head Integra liquid handler was used to add and mix 6 μL of test compound from the DMSO dilution plate to the intermediate dilution plate. (1:25 dilution). Cells were transferred from a flask into a 50 mL conical, vortex gently and the number of cells were counted, with a target cell number of about 1×10^6 cells per mL. The cells were diluted in culture medium in 50 mL conical or T25 flask, and the cell suspension was added to BRAVO reservoir and then use Bravo protocol to plate the appropriate number of cells shown below in 36 μl of medium per well as follows: Ba/F3-WT-EGFR 2000 cells per well of a 384 well plate; Ba/F3-LR/CS-EGFR 2000 cells per well of a 384 well plate; and Ba/F3-d19/CS-EGFR 1500 cells per well of a 384 well plate. An extra 10 mL of dead volume was utilized in each reservoir.
(§3) Using a Bravo liquid handler, 4 μl of test compound solution was added per well from the intermediate dilution plate to plated cells (1:10 dilution from the intermediate plate, final compound dilution 1:250 and final DMSO concentration per well is 0.4%). Using the 96 BRAVO Head, 25 μl were aspirated from the intermediate dilution plate and 4 μl each were dispensed into 4 wells (square pattern) in the 384-well plate. Any remaining test compound is dispensed into a secondary plate to prevent cross contamination of cells in the intermediate compound plate. After the compounds were added, the plate was shaken at 600 rpm gently for 60 see, and the plates were incubated in a tissue culture incubator, 37° C., 5% CO2, for ˜ 72 hours. After incubation, CTG 2.0 reagent was allowed to equilibrate to room temperature (˜3 hours) and cells to reach room temperature (˜10-15 minutes) and reagent was added to cells (40 μL/well) using a Bravo liquid handler. The plates were shaken to allow proper mixing (˜5 min) and let settle for 10 minutes and were read on Tecan plate reader using the appropriate luminescence method. Data from plate reader was transferred to an excel file and entered directly into Dotmatics using the protocols under EGFR Project/Cell Proliferation/named: “BaF3_EGFRwt_CP”, “BaF3_EGFR_d19/CS_CP”, “BaF3_EGFR_LR/CS_CP”. Curves were fit with a 4-parameter model and IC50s calculated by the Dotmatics software. DMSO wells were averaged to define the high control (100% growth). The average of the highest concentration of the positive control compound (afatinib) was used to define the 0% growth and used to lock the bottom of the curves. The tops of the curves were not fixed.

[1] = biological target: recombinant human EGFR exon 19 deletion/C797S double mutant protein (Homo sapiens (Human), UniProt P00533, C797S/DEL746-750); test: Biological Activity Assay C: biochemical assay against EGFR exon 19 deletion/C797S protein (EGFR d19/CS)
Description: In Row A of a 384-well polypropylene plate, was added 48 μL of DMSO. In wells A1 and A24, were added 12 μL of DMSO. […] To a well in Row A were added 12 μL of each 10 mM test compound stock (100% DMSO). […] The final intermediate dilution plate contained 4×16-point compound serial dilutions in assay buffer. The DMSO concentration was 10%. The intermediate compound dilution plate was transferred to the Bravo and the “5 uL dispense into ARP.pro” protocol was run. To the black low volume assay ready plates, were added 5 μL of 40 uM Phosphosens peptide sensor/4 mM ATP working solution to each well. […] To column 24, was added 10 μL of assay buffer. The final DMSO concentration was 2.5%. […] The plates were sealed with the TopSeal-A Plus plate seals. […] Set for 90 cycles with 120 second interval. […] The slope of each curve was constructed using Dotmatics in each well, and each IC50s was calculated using a 4-parameter fit model.

Ba/F3_EGFR WT cells = test: Biological Activity Assay D: BaF3 cell proliferation assay, EGFR wild-type (BaF3 WT); assay type: cell-based; settings: Ba/F3 EGFR, read-out: BaF3 WT IC50
Description: as §1, §2, §3

BaF3_EGFR d19/CS cells = test: Biological Activity Assay D: BaF3 cell proliferation assay, EGFR exon 19 deletion/C797S (BaF3 d19/CS); assay type: cell-based; settings: Ba/F3 EGFR, read-out: BaF3 d19/CS IC50
Description: as §1, §2, §3

[2] = BaF3_EGFR LR/CS cells, ~72 hours, CellTiter-Glo
[3] = Ba/F3_EGFR WT cells, ~72 hours, CellTiter-Glo
[4] = BaF3_EGFR d19/CS cells, ~72 hours, CellTiter-Glo

Sequence of recombinant human EGFR exon 19 deletion/C797S double mutant protein (P00533 other isoform, or with tags, fused parts or gaps C797S/del 1-668/del 746-750 limits assumed): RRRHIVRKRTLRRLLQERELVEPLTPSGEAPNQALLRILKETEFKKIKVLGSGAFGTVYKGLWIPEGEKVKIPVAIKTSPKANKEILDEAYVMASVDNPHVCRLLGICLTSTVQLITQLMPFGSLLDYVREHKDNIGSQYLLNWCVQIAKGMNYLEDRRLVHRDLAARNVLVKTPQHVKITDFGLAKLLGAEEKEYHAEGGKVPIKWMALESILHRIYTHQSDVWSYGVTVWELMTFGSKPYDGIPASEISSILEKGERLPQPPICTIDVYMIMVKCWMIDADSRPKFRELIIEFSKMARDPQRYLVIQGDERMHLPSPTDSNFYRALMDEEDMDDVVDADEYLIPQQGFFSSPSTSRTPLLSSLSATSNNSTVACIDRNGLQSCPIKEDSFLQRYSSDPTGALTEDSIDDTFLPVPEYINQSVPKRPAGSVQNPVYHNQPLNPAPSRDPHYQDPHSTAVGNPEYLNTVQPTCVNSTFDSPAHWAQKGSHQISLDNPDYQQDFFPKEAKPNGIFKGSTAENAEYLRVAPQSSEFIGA

| SMILES | IC50 (BaF3_EGFR LR/CS cells; [2]) [nM] | IC50 [1] [nM] | IC50 (Ba/F3_EGFR WT cells; [3]) [nM] | IC50 (BaF3_EGFR d19/CS cells; [4]) [nM] | IC50 (BaF3_EGFR LR/CS cells; 72 h) [nM] | IC50 (Ba/F3_EGFR WT cells; 72 h) [nM] | IC50 (BaF3_EGFR d19/CS cells; 72 h) [nM] |
| --- | --- | --- | --- | --- | --- | --- | --- |
| Fc1ccc(-c2nn([C@H]3C[C@H]4CC[C@@H](C3)O4)cc2-c2ncnc3oc(-c4ccccc4)cc23)cc1 [Example 172, 4-{3-(4-fluorophenyl)-1-[(1R,3r,5S)-8-oxabicyclo[3.2.1]octan-3-yl]-1H-pyrazol-4-yl}-6-phenylfuro[2,3-d]pyrimidine] | 33.1 | 1.44 | 7050 | 199 | – | – | – |
| Cc1c(-c2cc3c(-c4cn(CC(C)(C)O)nc4-c4ccc(F)cc4)ncnc3o2)ncn1C [Example 272, 1-{4-[6-(1,5-dimethyl-1H-imidazol-4-yl)furo[2,3-d]pyrimidin-4-yl]-3-(4-fluorophenyl)-1H-pyrazol-1-yl}-2-methylpropan-2-ol] | – | 0.486 | – | – | 13.5 | 668 | 15.7 |
| N#CCCn1cc(-c2ncnc3oc(-c4ccccn4)cc23)c(-c2ccc(F)cc2)n1 [Example 269, 3-{3-(4-fluorophenyl)-4-[6-(pyridin-2-yl)furo[2,3-d]pyrimidin-4-yl]-1H-pyrazol-1-yl}propanenitrile] | 8.63 | 0.082 | 392 | 7.72 | – | – | – |
| Cn1cnc(-c2cc3c(-c4cn(CCC#N)nc4-c4ccc(F)cc4)ncnc3o2)c1 [Example 265, 3-{3-(4-fluorophenyl)-4-[6-(1-methyl-1H-imidazol-4-yl)furo[2,3-d]pyrimidin-4-yl]-1H-pyrazol-1-yl}propanenitrile] | 1.43 | 0.078 | 69.9 | 1.46 | – | – | – |
| FCCn1cc(-c2ncnc3oc(-c4ccccc4)cc23)c(-c2ccc(F)cc2)n1 [Example 135, 4-[1-(2-Fluoroethyl)-3-(4-fluorophenyl)-1H-pyrazol-4-yl]-6-phenylfuro[2,3-d]pyrimidine] | 17.1 | 0.33 | 1160 | 31.9 | – | – | – |
| COc1ccc(-c2cc3c(-c4cn(CC(C)(C)O)nc4-c4ccc(F)cc4)ncnc3o2)nc1 [Example 276, 1-{3-(4-fluorophenyl)-4-[6-(5-methoxypyridin-2-yl)furo[2,3-d]pyrimidin-4-yl]-1H-pyrazol-1-yl}-2-methylpropan-2-ol] | 19 | 0.07 | 677 | 13.5 | – | – | – |
| Cn1cnc(-c2cc3c(-c4cn([C@H]5C[C@@H](F)C5)nc4-c4ccc(F)cc4)ncnc3o2)c1 [Example 264, 4-{1-[(1s,3s)-3-fluorocyclobutyl]-3-(4-fluorophenyl)-1H-pyrazol-4-yl}-6-(1-methyl-1H-imidazol-4-yl)furo[2,3-d]pyrimidine] | 6.54 | 0.135 | 448 | 8.85 | – | – | – |
| CC(=O)N1CCN(c2cc3c(-c4cn(C5CS(=O)(=O)C5)nc4-c4ccc(F)cc4)ncnc3o2)CC1 [Example 149, 3-{4-[6-(4-acetylpiperazin-1-yl)furo[2,3-d]pyrimidin-4-yl]-3-(4-fluorophenyl)-1H-pyrazol-1-yl}-1λ6-thietane-1,1-dione] | 2770 | 3.72 | > 20000 | 1160 | – | – | – |
| N#CCCn1cc(-c2ncnc3oc(-c4cccnc4)cc23)c(-c2ccc(F)cc2)n1 [Example 268, 3-{3-(4-fluorophenyl)-4-[6-(pyridin-3-yl)furo[2,3-d]pyrimidin-4-yl]-1H-pyrazol-1-yl}propanenitrile] | 16.5 | 0.104 | 414 | 13.3 | – | – | – |

Now from value to molecule, other results behind:

| IC50 (BaF3_EGFR LR/CS cells; [2]) [nM] | IC50 [1] [nM] | IC50 (Ba/F3_EGFR WT cells; [3]) [nM] | IC50 (BaF3_EGFR d19/CS cells; [4]) [nM] | SMILES | IC50 (BaF3_EGFR LR/CS cells; 72 h) [nM] | IC50 (Ba/F3_EGFR WT cells; 72 h) [nM] | IC50 (BaF3_EGFR d19/CS cells; 72 h) [nM] |
| --- | --- | --- | --- | --- | --- | --- | --- |
| 14.6 | 0.18 | 720 | 58.2 | O=S1(=O)CCC[C@@H](Cn2cc(-c3ncnc4oc(-c5ccccc5)cc34)c(-c3ccc(F)cc3)n2)C1 (single isomer, unassigned) [Example 126] | – | – | – |
| 444 | 1.65 | > 20000 | 392 | O=S1(=O)CC(n2cc(-c3ncnc4oc(-c5ccccc5C(F)(F)F)cc34)c(-c3ccc(F)cc3)n2)C1 [Example 182, 3-[3-(4-fluorophenyl)-4-{6-[2-(trifluoromethyl)phenyl]furo[2,3-d]pyrimidin-4-yl}-1H-pyrazol-1-yl]-1λ6-thietane-1,1-dione] | – | – | – |
| 51 | 0.11 | 1280 | 49.7 | CN1CCN(Cc2cccc(-c3cc4c(-c5cn(C6CS(=O)(=O)C6)nc5-c5ccc(F)cc5)ncnc4o3)c2)CC1 [Example 205, 3-[3-(4-fluorophenyl)-4-(6-{3-[(4-methylpiperazin-1-yl)methyl]phenyl}furo[2,3-d]pyrimidin-4-yl)-1H-pyrazol-1-yl]-1λ6-thietane-1,1-dione] | – | – | – |
| 136 | 0.88 | 2510 | 303 | C[C@H]1OCC[C@@H]1n1cc(-c2ncnc3oc(-c4ccccc4)cc23)c(-c2ccc(F)cc2)n1 (single isomer, unassigned) [Example 214] | – | – | – |
| 511 | 3.79 | 6050 | 267 | O=S1(=O)CC(n2cc(-c3ncnc4oc(C5=CCCNC5)cc34)c(-c3ccc(F)cc3)n2)C1 [Example 159, 3-{3-(4-fluorophenyl)-4-[6-(1,2,5,6-tetrahydropyridin-3-yl)furo[2,3-d]pyrimidin-4-yl]-1H-pyrazol-1-yl}-1λ6-thietane-1,1-dione] | – | – | – |
| 3.54 | 0.05 | 696 | 9.26 | Cn1cc(-c2cc3c(-c4cn(C5CS(=O)(=O)C5)nc4-c4ccc(F)cc4)ncnc3o2)cn1 [Example 250, 3-{3-(4-fluorophenyl)-4-[6-(1-methyl-1H-pyrazol-4-yl)furo[2,3-d]pyrimidin-4-yl]-1H-pyrazol-1-yl}-16-thietane-1,1-dione] | – | – | – |
| 10.6 | 0.14 | 289 | 17.1 | CN(c1cccc(-c2cc3c(-c4cn(C5CS(=O)(=O)C5)nc4-c4ccc(F)cc4)ncnc3o2)c1)S(C)(=O)=O [Example 203, N-(3-{4-[1-(1,1-dioxo-1λ6-thietan-3-yl)-3-(4-fluorophenyl)-1H-pyrazol-4-yl]furo[2,3-d]pyrimidin-6-yl}phenyl)-N-methylmethanesulfonamide] | – | – | – |
| 667 | 2.13 | 4560 | 384 | CN(C)C(=O)c1ccccc1-c1cc2c(-c3cn(C4CS(=O)(=O)C4)nc3-c3ccc(F)cc3)ncnc2o1 [Example 228, 2-{4-[1-(1,1-dioxo-1λ6-thietan-3-yl)-3-(4-fluorophenyl)-1H-pyrazol-4-yl]furo[2,3-d]pyrimidin-6-yl}-N,N-dimethylbenzamide] | – | – | – |
